Laboratory results from ChEMBL document CHEMBL1150508, “Benzopyran potassium channel activators related to cromakalim - amide replacements at position 4” (1993).

Experiments:
Assay type in all cases: functional, Artery
Settings in all cases: route oral
Rattus norvegicus [1] = assay: Maximum fall in systolic blood pressure at interval of 1 hour over a period of 1-6 hour after dose of 1.0 mg/kg (p.o.) in spontaneous hypertensive rat (SHR); parameters: unit not given here
Rattus norvegicus [2] = assay: Maximum fall in systolic blood pressure at interval of 1 hour over a period of 1-6 hour after dose of 3.0 mg/kg (p.o.) in spontaneous hypertensive rat (SHR)
Rattus norvegicus [3] = assay: Maximum fall in systolic blood pressure at interval of 1 hour over a period of 1-6 hour after dose of 0.3 mg/kg (p.o.) in spontaneous hypertensive rat (SHR); parameters: unit not given here
Rattus norvegicus [4] = assay: Maximum fall in systolic blood pressure at interval of 1 hour over a period of 1-6 hour after dose of 0.1 mg/kg (p.o.) in spontaneous hypertensive rat (SHR)
Rattus norvegicus [5] = assay: Maximum fall in systolic blood pressure at interval of 1 hour over a period of 1-6 hour after dose of 10 mg/kg (p.o.) in spontaneous hypertensive rat (SHR)
Rattus norvegicus [6] = assay: Maximum fall in systolic blood pressure at interval of 1 hour over a period of 1-6 hour after dose 1.0 mg/kg (p.o.) in spontaneous hypertensive rat (SHR)

Compound	Max fall in blood pressure (Rattus norvegicus [1])	Max fall in blood pressure (Rattus norvegicus [3])	other results
C/N=C(/NC#N)NC1c2cnccc2OC(C)(C)[C@H]1O (stereo not given in full)	25		
CN/C(=N/C1=CC(C)(C)Oc2ccc(C#N)cc21)NC#N	17		Max fall in blood pressure (Rattus norvegicus [2]): 15
C/N=C(\NC1c2cc(C#N)ccc2OC(C)(C)[C@H]1O)NS(N)(=O)=O (stereo not given in full)			Max fall in blood pressure (Rattus norvegicus [2]): 14
C/N=C(/NC#N)NC1c2cc(C#N)ccc2OC(C)(C)C1O (single isomer, unassigned)	41	16	
CNC(=O)NC1c2cc(C#N)ccc2OC(C)(C)C1O (single isomer, unassigned)	61	31	Max fall in blood pressure (Rattus norvegicus [4]): 14
C/N=C(/NC(C)=O)NC1c2cc(C#N)ccc2OC(C)(C)C1O (single isomer, unassigned)	17		
CC1(C)Oc2ccc(C#N)cc2C(/N=C(/N)NC#N)C1O (single isomer, unassigned)	48	24	
CN/C(=C\[N+](=O)[O-])NC1c2cc(C#N)ccc2OC(C)(C)C1O (single isomer, unassigned)	7		Max fall in blood pressure (Rattus norvegicus [5]): 12
CC(C)(C)/N=C(/NC#N)NC1c2cc(C#N)ccc2OC(C)(C)C1O (single isomer, unassigned)			Max fall in blood pressure (Rattus norvegicus [6]): 8; Max fall in blood pressure (Rattus norvegicus [5]): 10
C/N=C(/NC(N)=O)NC1c2cc(C#N)ccc2OC(C)(C)C1O (single isomer, unassigned)			Max fall in blood pressure (Rattus norvegicus [2]): 19
CC1(C)Oc2ccc(C#N)cc2C(N2CCCC2=O)[C@H]1O (stereo not given in full) [CROMAKALIM]	47	39	Max fall in blood pressure (Rattus norvegicus [4]): 13
